This is an account of results in patent US20170042936A1, “COMPOSITION FOR LOCAL AND CONTROLLED RELEASE OF DRUGS AND METHODS THEREOF” (INEB - INSTITUTO NACIONAL DE ENGENHARIA BIOMÉDICA, priority 2014, published 2017).

The subject of data set [1] is MC3T3-E1 cells. Kind of data set: Cell morphology on granules by SEM and confocal laser scanning microscopy. The class given is cell-based, mouse. The following applies: in presence of vancomycin. The method, then:
(§1) The pre-osteoblasts MC3T3-E1 cells, an osteoblastic cell line derived from mouse calvaria, were grown in alpha minimum essential medium (α-MEM, Gibco, Life Technologies, Grand Island, N.Y.), supplemented with 1% penicillinstreptomycin (Gibco) and 10% fetal bovine serum (FBS, Invitrogen, Carlsbad, Calif.). Cells were incubated in a humidified environment at 37° C. and 5% of CO2. Vancomycin adsorption on granules was performed as mentioned earlier. Granules were placed in 96-well plates, and cells were seeded using a density of 5×10^4 cells/mL. Cells were cultured for 21 days, and medium was changed three times a week. As control, cells were cultured on tissue culture polystyrene (TCPS) with the same conditions used for the granules. For each condition, six replicates were used for the resazurin assay.
Granules with seeded cells were rinsed with PBS and fixer using 1.5% gluteraldehyde (v/v) (Agar) in 0.14 M sodium cacodyl-ate buffer (Merck, Kenilworth, N.J.) at RT for 30 min. The samples were washed twice with PBS and then dehydrated in graded series of ethanol. Hexamethyldisilazane (Sigma) was added, and the samples were dried overnight at RT. Granules were visualized on SEM as previously described.
Confocal laser scanning microscopy. Granules with seeded cells were fixed using 4% paraformaldehyde for 15 min and then washed twice with PBS. Triton X-100 0.1% was used, for 5 min, to permeabilize the cells, and the cells were then incubated in 1% bovine serum albumin at 37° C. for 30 min. After incubation, the staining of the F-actin filaments was performed using Alexa Fluor 594 Phalloidin (1:100, Molecular Probes A12379, Invitrogen) in 1% bovine serum albumin at RT for 20 min in dark. The samples were then washed twice with PBS. Cell nuclei were stained with a solution of Hoechst dye (1:1000, Sigma) in PBS at RT for 15 min in dark. Finally, the samples were washed twice with PBS, and one drop of Vectashield was added. The images were acquired with a Leica SP5 Confocal microscope, using a […] oil immersion objective. […]

The subject of data set [2] is MC3T3-E1 cells. Kind of data set: Metabolic activity of pre-osteoblasts (resazurin) in presence of released vancomycin. The class given is cell-based, mouse. The method, then: as §1
In an embodiment, the metabolic activity was also performed. The nontoxic alamar blue (resazurin) dye was used to determine the metabolic activity of MC3T3-E1 cells. The blue nonfluorescent dye is metabolized by cells, converting it to a reduced pink fluorescence dye. Therefore, 10% (v/v) of resazurin was added to the medium and incubated for 4 h at 37° C. and 5% of CO2. Afterward, 100 μL was transferred into a black 96-well plate, and fluorescence was measured at 530 nm excitation and 590 nm emission wavelength with a fluorescence reader (SynergyMix, BioTek, Winooski, Vt.) using Gen5 1.09 Data Analysis Software. These measurements were made at 24 h and 4, 7, 14, and 21 days of culture.
For orientation: Resazurin is reduced to fluorescent resorufin, in cell work by metabolically active cells.

The subject of the next data set is S. aureus ATCC 25923. Conditions: cited from earlier work.

“Also recorded” adds a separate entry of the source.

On to `CN[C@H](CC(C)C)C(=O)N[C@H]1C(=O)N[C@@H](CC(N)=O)C(=O)N[C@H]2C(=O)N[C@H]3C(=O)N[C@H](C(=O)N[C@H](C(=O)O)c4cc(O)cc(O)c4-c4cc3ccc4O)[C@H](O)c3ccc(c(Cl)c3)Oc3cc2cc(c3O[C@@H]2O[C@H](CO)[C@@H](O)[C@H](O)[C@H]2O[C@H]2C[C@](C)(N)[C@H](O)[C@H](C)O2)Oc2ccc(cc2Cl)[C@H]1O` [vancomycin], for which the “MC3T3-E1 cell morphology (confocal microscopy)” value in the data set with MC3T3-E1 cells [1] (24 h and 4 days) is given as “more rounded morphology”; with MC3T3-E1 cells [1] (after 7 days) it was “started to elongate on the surface of the material”; with MC3T3-E1 cells [1] (after 14 days) it was “well spread, covering the entire surface”. For the same compound, the “viability of osteoblast cells in presence of vancomycin” value with MC3T3-E1 cells [2] (vancomycin released from heparinized granules, after 14 days of culture) is reported as “cells were able to remain viable; also recorded: did not affect the viability of MC3T3-E1 cells”. Further, the “metabolic activity of MC3T3-E1 cells versus without vancomycin” value in the data set on MC3T3-E1 cells [2] (vancomycin released from heparinized nanoHA/collagen granules, 24 h of culture) is recorded as “no difference in the metabolic activity”. Also, the “metabolic activity of MC3T3-E1 cells” value with MC3T3-E1 cells [2] (vancomycin released from heparinized nanoHA/collagen granules, after 14 days up to 21 days of culture) was “increased their metabolic activity”; in the data set with MC3T3-E1 cells [2] (vancomycin released from heparinized nanoHA/collagen granules, until 7 days of culture), “decrease in metabolic activity”. Also, the “vancomycin minimum inhibitory concentration (MIC)” value in the data set on S. aureus ATCC 25923 is 1 µg/mL.
